Reference: US20200181117A1, “SUBSTITUTED 3-HETEROARYLOXY-1H-PYRAZOLES AND SALTS THEREOF AND THEIR USE AS HERBICIDAL ACTIVE SUBSTANCES” (BAYER CROPSCIENCE AKTIENGESELLSCHAFT, priority 2017, published 2020)

Tests used:
Type in all cases: in vivo
[1] = system: Stellaria media; experiment: Pre-emergence herbicidal action; conditions: 1280 g/ha, scored visually after about 3 weeks vs untreated controls
From the text: (§1) Pre-Emergence Herbicidal Action and Crop Plant Compatibility Seeds of monocotyledonous and dicotyledonous weed plants and crop plants were placed in plastic or wood fiber pots and covered with soil. The compounds of the invention, formulated in the form of wettable powders (WP) or as emulsion concentrates (EC), were then applied onto the surface of the covering soil as aqueous suspension or emulsion with addition of 0.5% additive at a water application rate of 600 l/ha (converted). After the treatment, the pots were placed in a greenhouse and kept under good growth conditions for the test plants. After about 3 weeks, the effect of the preparations was scored visually in comparison with untreated controls as percentages. For example, 100% activity=the plants have died, 0% activity=like control plants. Tables C1 to C14 below show the effects of selected compounds of the general formula (I) according to Table I on various harmful plants and an application rate corresponding to 1280 g/ha, which were obtained by the experimental procedure mentioned above.

[2] = system: Viola tricolor; experiment: Pre-emergence herbicidal action; conditions: 1280 g/ha, scored visually after about 3 weeks vs untreated controls
From the text: as §1

[3] = system: Amaranthus retroflexus; experiment: Pre-emergence herbicidal action; conditions: 1280 g/ha, scored visually after about 3 weeks vs untreated controls
From the text: as §1

[4] = system: Stellaria media; experiment: Post-emergence herbicidal action; conditions: 1280 g/ha, rated visually after about 3 weeks vs untreated controls
Method: (§2) A. Post-Emergence Herbicidal Action and Crop Plant Compatibility Seeds of monocotyledonous and dicotyledonous weeds and crop plants were placed in sandy loam in plastic or wood-fiber pots, covered with soil and cultivated in a greenhouse under controlled growth conditions. 2 to 3 weeks after sowing, the test plants were treated at the one-leaf stage. The compounds of the invention, formulated in the form of wettable powders (WP) or as emulsion concentrates (EC), were then sprayed onto the green parts of the plants as aqueous suspension or emulsion with addition of 0.5% additive at a water application rate of 600 l/ha (converted). After the test plants had been kept in the greenhouse under optimum growth conditions for about 3 weeks, the activity of the preparations was rated visually in comparison to untreated controls. For example, 100% activity=the plants have died, 0% activity=like control plants. Tables B1 to B15 below show the effects of selected compounds of the general formula (I) according to Table I on various harmful plants and an application rate corresponding to 1280 g/ha, which were obtained by the experimental procedure mentioned above.

[5] = system: Amaranthus retroflexus; experiment: Post-emergence herbicidal action; conditions: 1280 g/ha, rated visually after about 3 weeks vs untreated controls
Method: as §2

[6] = system: Veronica persica; experiment: Post-emergence herbicidal action; conditions: 1280 g/ha, rated visually after about 3 weeks vs untreated controls
Method: as §2

[7] = system: Setaria viridis; experiment: Pre-emergence herbicidal action; conditions: 1280 g/ha, scored visually after about 3 weeks vs untreated controls
From the text: as §1

[8] = system: Echinochloa crus-galli; experiment: Pre-emergence herbicidal action; conditions: 1280 g/ha, scored visually after about 3 weeks vs untreated controls
From the text: as §1

[9] = system: Matricaria inodora; experiment: Pre-emergence herbicidal action; conditions: 1280 g/ha, scored visually after about 3 weeks vs untreated controls
From the text: as §1

[10] = system: Abutilon theophrasti; experiment: Pre-emergence herbicidal action; conditions: 1280 g/ha, scored visually after about 3 weeks vs untreated controls
From the text: as §1

[11] = system: Alopecurus myosuroides; experiment: Pre-emergence herbicidal action; conditions: 1280 g/ha, scored visually after about 3 weeks vs untreated controls
From the text: as §1

[12] = system: Veronica persica; experiment: Pre-emergence herbicidal action; conditions: 1280 g/ha, scored visually after about 3 weeks vs untreated controls
From the text: as §1

[13] = system: Polygonum convolvulus; experiment: Pre-emergence herbicidal action; conditions: 1280 g/ha, scored visually after about 3 weeks vs untreated controls
From the text: as §1

[14] = system: Viola tricolor; experiment: Post-emergence herbicidal action; conditions: 1280 g/ha, rated visually after about 3 weeks vs untreated controls
Method: as §2

[15] = system: Polygonum convolvulus; experiment: Post-emergence herbicidal action; conditions: 1280 g/ha, rated visually after about 3 weeks vs untreated controls
Method: as §2

[16] = system: Setaria viridis; experiment: Post-emergence herbicidal action; conditions: 1280 g/ha, rated visually after about 3 weeks vs untreated controls
Method: as §2

[17] = system: Alopecurus myosuroides; experiment: Post-emergence herbicidal action; conditions: 1280 g/ha, rated visually after about 3 weeks vs untreated controls
Method: as §2

[18] = system: Avena fatua; experiment: Pre-emergence herbicidal action; conditions: 1280 g/ha, scored visually after about 3 weeks vs untreated controls
From the text: as §1

[19] = system: Pharbitis purpurea; experiment: Post-emergence herbicidal action; conditions: 1280 g/ha, rated visually after about 3 weeks vs untreated controls
Method: as §2

[20] = system: Abutilon theophrasti; experiment: Post-emergence herbicidal action; conditions: 1280 g/ha, rated visually after about 3 weeks vs untreated controls
Method: as §2

## CCc1c(Sc2ccc(Cl)cc2)c(Oc2ncccn2)nn1C [Example I-058]
[1]
  herbicidal activity on Stellaria media: 90%
[2]
  herbicidal activity on Viola tricolor: 80%
[3]
  herbicidal activity on Amaranthus retroflexus: 100%
[4]
  herbicidal activity on Stellaria media: 100%
[5]
  herbicidal activity on Amaranthus retroflexus: 80%
[6]
  herbicidal activity on Veronica persica: 90%

## Cn1cc(Sc2ccccc2)c(Oc2ncccn2)n1 [Example I-067]
[1]
  herbicidal activity on Stellaria media: 90%
[7]
  herbicidal activity on Setaria viridis: 100%
[8]
  herbicidal activity on Echinochloa crus-galli: 90%
[2]
  herbicidal activity on Viola tricolor: 100%
[3]
  herbicidal activity on Amaranthus retroflexus: 100%
[9]
  herbicidal activity on Matricaria inodora: 100%
[10]
  herbicidal activity on Abutilon theophrasti: 90%
[11]
  herbicidal activity on Alopecurus myosuroides: 90%
[12]
  herbicidal activity on Veronica persica: 100%
[13]
  herbicidal activity on Polygonum convolvulus: 90%
[4]
  herbicidal activity on Stellaria media: 90%
[14]
  herbicidal activity on Viola tricolor: 80%
[6]
  herbicidal activity on Veronica persica: 100%
[15]
  herbicidal activity on Polygonum convolvulus: 90%

## Cn1cc(Sc2ccccc2)c(Oc2ncc(Cl)cn2)n1 [Example I-120]
[1]
  herbicidal activity on Stellaria media: 100%
[8]
  herbicidal activity on Echinochloa crus-galli: 100%
[2]
  herbicidal activity on Viola tricolor: 100%
[3]
  herbicidal activity on Amaranthus retroflexus: 80%
[10]
  herbicidal activity on Abutilon theophrasti: 100%
[11]
  herbicidal activity on Alopecurus myosuroides: 90%
[12]
  herbicidal activity on Veronica persica: 100%
[13]
  herbicidal activity on Polygonum convolvulus: 80%
[4]
  herbicidal activity on Stellaria media: 90%
[16]
  herbicidal activity on Setaria viridis: 80%
[14]
  herbicidal activity on Viola tricolor: 100%
[5]
  herbicidal activity on Amaranthus retroflexus: 80%
[17]
  herbicidal activity on Alopecurus myosuroides: 90%
[6]
  herbicidal activity on Veronica persica: 80%
[15]
  herbicidal activity on Polygonum convolvulus: 100%

## Cn1cc(Sc2ccc(F)cc2)c(Oc2ncccn2)n1 [Example I-032]
[3]
  herbicidal activity on Amaranthus retroflexus: 80%
[9]
  herbicidal activity on Matricaria inodora: 90%
[12]
  herbicidal activity on Veronica persica: 90%
[4]
  herbicidal activity on Stellaria media: 100%
[5]
  herbicidal activity on Amaranthus retroflexus: 90%
[6]
  herbicidal activity on Veronica persica: 90%
[15]
  herbicidal activity on Polygonum convolvulus: 90%

## Cc1c(Sc2ccc(F)cc2)c(Oc2ncccn2)nn1C [Example I-087]
[7]
  herbicidal activity on Setaria viridis: 100%
[8]
  herbicidal activity on Echinochloa crus-galli: 80%
[2]
  herbicidal activity on Viola tricolor: 100%
[3]
  herbicidal activity on Amaranthus retroflexus: 100%
[9]
  herbicidal activity on Matricaria inodora: 90%
[10]
  herbicidal activity on Abutilon theophrasti: 100%
[12]
  herbicidal activity on Veronica persica: 100%
[18]
  herbicidal activity on Avena fatua: 80%
[13]
  herbicidal activity on Polygonum convolvulus: 90%
[4]
  herbicidal activity on Stellaria media: 100%
[16]
  herbicidal activity on Setaria viridis: 90%
[14]
  herbicidal activity on Viola tricolor: 100%
[5]
  herbicidal activity on Amaranthus retroflexus: 100%
[19]
  herbicidal activity on Pharbitis purpurea: 80%
[20]
  herbicidal activity on Abutilon theophrasti: 80%
[17]
  herbicidal activity on Alopecurus myosuroides: 90%
[6]
  herbicidal activity on Veronica persica: 100%
[15]
  herbicidal activity on Polygonum convolvulus: 100%

## Cc1c(Sc2cccc(C(F)(F)F)c2)c(Oc2ncccn2)nn1C [Example I-142]
[1]
  herbicidal activity on Stellaria media: 90%
[7]
  herbicidal activity on Setaria viridis: 100%
[2]
  herbicidal activity on Viola tricolor: 100%
[3]
  herbicidal activity on Amaranthus retroflexus: 90%
[11]
  herbicidal activity on Alopecurus myosuroides: 80%
[12]
  herbicidal activity on Veronica persica: 90%
[13]
  herbicidal activity on Polygonum convolvulus: 100%
[5]
  herbicidal activity on Amaranthus retroflexus: 90%
[20]
  herbicidal activity on Abutilon theophrasti: 80%
[6]
  herbicidal activity on Veronica persica: 80%
